Like-named read-outs stand apart in the source and are kept apart here.
Biological target: T1, human cGAS (residues 161-522) (Homo sapiens, UniProt Q8N884)
T1 construct: Recombinantly expressed purified human cGAS (residues 161-522) was used at 25 nM; made in house
Assay: cGAS Activity Assay—Malachite Green
Format: biochemical
Procedure: Compounds were tested for cGAS inhibition in a coupled enzymatic assay based on Phosphate detection by Malachite Green. Final assay conditions were 20 mM TRIS pH 7.5 (Applichem), 5 mM MgCl2 (Sigma) and 0.01% BSA (Sigma) supplemented with 80 μM ATP (Sigma), 80 μM GTP (Sigma) and 100 nM Interferon Stimulating DNA (ISD) (Microsynth).
1 μL of DMSO dilution series was transferred to 32.3 μL reaction buffer, mixed by pipetting up/down, spun for 1 minute at 3000 rpm and was visually inspected for precipitation. 5 μL of 3-fold enzyme stock solution were transferred to an empty 384-well Black/Clear Flat Bottom Polystyrene NBS (Corning) rows 3-24. Rows 1-2 were filled with assay buffer. Plates were spun 10 seconds at 1000 rpm (164×g). 5 μL of compound intermediate dilution was added and mixed by pipetting up/down to rows 3-24. Rows 1-2 were filled with 3.1% DMSO assay buffer. Plates were spun 10 seconds at 1000 rpm (164×g). 5 μL 3-fold Nucleotide/DNA mix was added to all wells to start the reaction. Plates were spun 10 seconds at 1000 rpm (164×g) and incubated for 4 hour at room temperature (RT) in the dark. 5 μL 4 U/mL PPase (Sigma) were added to all wells. Plates spun 10 seconds at 1000 rpm (164×g). 10 μL BioMol green Solution (Enzo Life Sciences) was added to all wells. Plates spun 10 seconds at 1000 rpm (164×g) and incubated 30 minutes at RT in the dark. Absorbance data was collected 620 nm on an EnVision Multilable Reader (Perkin Elmer) and the following measurement settings were used: excitation filter photometric was 620 nm; excitation from the top; measurement height was 1 mm; number of flashes was 30; number of flashes integrated was 1.
All plates are checked for abnormalities and outliers in the Blank Control (no protein, row 1) and the Neutral Control (no compound, row 2) are excluded using the 3*SD rule.
Table 5 provides IC50 values (μM) for cGAS inhibition obtained for particular examples of the present invention as measured by the above-described assay.

[1] = cGAS inhibition, 25 nM cGAS, 80 μM ATP, 80 μM GTP, 100 nM ISD, 4 hour at RT, Malachite Green phosphate detection, read-out: IC50 cGAS

T1 sequence (Q8N884 161-522): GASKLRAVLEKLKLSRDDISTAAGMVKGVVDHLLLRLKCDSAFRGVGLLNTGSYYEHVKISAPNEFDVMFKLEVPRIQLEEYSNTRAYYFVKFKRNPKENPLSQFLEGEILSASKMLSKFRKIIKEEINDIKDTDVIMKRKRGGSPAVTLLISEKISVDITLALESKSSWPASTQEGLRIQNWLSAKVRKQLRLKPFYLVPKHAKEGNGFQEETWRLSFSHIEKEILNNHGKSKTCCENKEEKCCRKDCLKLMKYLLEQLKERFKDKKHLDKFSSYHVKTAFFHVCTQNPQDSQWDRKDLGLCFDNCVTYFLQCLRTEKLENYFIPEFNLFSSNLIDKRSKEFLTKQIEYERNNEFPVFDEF

Row | SMILES | IC50 [1] [nM] | IC50 [nM]
1 | CCCc1cc(=O)n2nc(NCc3ccc(N4CCOCC4)cc3Cl)nc2[nH]1 [Example 41, 2-[(2-chloro-4-morpholino-phenyl)methylamino]-5-propyl-4H-[1,2,4]triazolo[1,5-a]-pyrimidin-7-one] | 701 | –
2 | CCCCc1cc(=O)n2nc(NCc3ccc(Cl)cc3Cl)nc2[nH]1 [Example 35, 5-butyl-2-[(2,4-dichlorophen-yl)methylamino]-4H-[1,2,4]-triazolo-[1,5-a]pyrimidin-7-one] | – | 1320
3 | COCCc1cc(=O)n2nc(NCc3cc(-c4ccn(C)n4)ccc3Cl)nc2[nH]1 [Example 51, 2-[[2-chloro-5-(1-methylpyrazol-3-yl)phenyl]methylamino]-5-(2-methoxyethyl)-4H-[1,2,4]-triazolo[1,5-a]pyrimidin-7-one] | 491 | –
4 | CCCc1cc(=O)n2nc(NCc3ccc(C#N)cc3Cl)nc2[nH]1 [Example 7, 3-chloro-4-[[(7-oxo-5-propyl-4H-[1,2,4]triazolo[1,5-a]-pyrimidin-2-yl)amino]methyl]-benzonitrile] | 2420 | –
5 | CCCCc1cc(=O)n2nc(NCc3cc(-c4ccccc4)nn3C)nc2[nH]1 [Example 44, 5-butyl-2-[(2-methyl-5-phenyl-pyrazol-3-yl)methylamino]-4H-[1,2,4]triazolo[1,5-a]pyrimidin-7-one] | 6570 | –
6 | CCCc1cc(=O)n2nc(NCc3cc(-c4cccnc4)ccc3Cl)nc2[nH]1 [Example 21, 2-[[2-chloro-5-(3-pyridyl)phen-yl]-methylamino]-5-propyl-4H-[1,2,4]triazolo[1,5-a]pyrimidin-7-one] | – | 744
7 | CCCc1cc(=O)n2nc(NCc3ccc(-c4ccccc4)cc3Cl)nc2[nH]1 [Example 4] | – | 765
8 | CCCc1cc(=O)n2nc(NCc3ccc(OCC(F)(F)F)cc3)nc2[nH]1 [Example 8, 5-propyl-2-[[4-(2,2,2-trifluoro-ethoxy)phenyl]methyllamino]-4H-[1,2,4]triazolo[1,5-a]-pyrimidin-7-one] | – | 7780
9 | CCCc1cc(=O)n2nc(NCc3ccc(-c4ccccc4)cc3F)nc2[nH]1 [Example 1, 2-[(2-Fluoro-4-phenyl-phenyl)methylamino]-5-propyl-4H-[1,2,4]triazolo[1,5-a]pyrimidin-7-one] | 744 | –
10 | CCCCc1cc(=O)n2nc(NCc3cc(-c4ccn(C)n4)ccc3Cl)nc2[nH]1 [Example 32, 5-butyl-2-[[2-chloro-5-(1-methyl-pyrazol-3-yl)phenyl]methyl-amino]-4H-[1,2,4]triazolo[1,5-a]pyrimidin-7-one] | 162 | –
11 | CCCc1cc(=O)n2nc(NCc3cc(-c4ncccn4)ccc3Cl)nc2[nH]1 [Example 43, 2-[(2-chloro-5-pyrimidin-2-yl-phenyl)methylamino]-5-propyl-4H-[1,2,4]triazolo[1,5-a]-pyrimidin-7-one] | 326 | –
12 | CCCc1cc(=O)n2nc(NCc3cccc(-c4ccn(C)n4)c3)nc2[nH]1 [Example 13, 2-[[3-(1-methylpyrazol-3-yl)-phenyl]methylamino]-5-propyl-4H-[1,2,4]triazolo[1,5-a]-pyrimidin-7-one] | – | 1940
13 | CCCc1cc(=O)n2nc(NCc3cc(-c4cncnc4)ccc3Cl)nc2[nH]1 [Example 36, 2-[(2-chloro-5-pyrimidin-5-yl-phenyl)methylamino]-5-propyl-4H-[1,2,4]triazolo[1,5-a]-pyrimidin-7-one] | 392 | –
14 | Cn1ccc(-c2ccc(Cl)c(CNc3nc4[nH]c(CCc5ccccc5)cc(=O)n4n3)c2)n1 [Example 26, 2-[[2-chloro-5-(1-methylpyrazol-3-yl)phenyl]methylamino]-5-(2-phenylethyl)-4H-[1,2,4]-triazolo[1,5-a]pyrimidin-7-one] | – | 1600
15 | CCCc1cc(=O)n2nc(NCc3ccc(OC4CC4)cc3)nc2[nH]1 [Example 10, 2-[[4-(cyclopropoxy)phenyl]-methylamino]-5-propyl-4H-[1,2,4]triazolo[1,5-a]pyrimidin-7-one] | 4080 | –
16 | CCCCc1cc(=O)n2nc(NCc3cc(C4CC4)on3)nc2[nH]1 [Example 49, 5-butyl-2-[(5-cyclopropylisox-azol-3-yl)methylamino]-4H-[1,2,4]triazolo[1,5-a]pyrimidin-7-one] | 4660 | –

Next, values leading:

Row | IC50 [1] [nM] | IC50 [nM] | SMILES
17 | 1690 | – | CCCc1cc(=O)n2nc(NCc3cc(-c4ccn(C)n4)ccc3C(F)(F)F)nc2[nH]1 [Example 81, 2-[[5-(1-Methylpyrazol-3-yl)-2-(trifluoromethyl)phenyl]methylamino]-5-propyl-4H-[1,2,4]-triazolo[1,5-a]pyrimidin-7-one]
18 | 2180 | – | CCCc1cc(=O)n2nc(OCc3ccc(-c4ccccc4)cc3Cl)nc2[nH]1 [Example 92, 2-1(2-Chloro-4-phenyl-phenyl)methoxyl-5-propyl-4H-[1,2,4]triazolo[1,5-a]pyrimidin-7-one]
19 | 4560 | – | CCCc1cc(=O)n2nc(NCc3nc4ccccc4o3)nc2[nH]1 [Example 74, 2-(1,3-benzoxazol-2-ylmethyl-amino)-5-propyl-4H-[1,2,4]-triazolo[1,5-a]pyrimidin-7-one]
20 | – | 3280 | O=c1cc(CCCC(F)F)[nH]c2nc(NCc3ccc(Cl)cc3Cl)nn12 [Example 52, 2-[(2,4-dichlorophenyl)methyl-amino]-5-(4,4-difluorobutyl)-4H-[1,2,4]triazolo[1,5-a]-pyrimidin-7-one]
21 | – | 5220 | CCCc1cc(=O)n2nc(NCc3cnc(N4CCN(C)CC4)cc3Cl)nc2[nH]1 [Example 100]
22 | – | 640 | CCCc1cc(=O)n2nc(NCc3cc(-n4cncc4C)ccc3Cl)nc2[nH]1 [Example 87, 2-[[2-chloro-5-(5-methylimidazol-1-yl)phenyl]methylamino]-5-propyl-4H-[1,2,4]triazolo[1,5-a]pyrimidin-7-one]
23 | – | 128 | CCCCc1cc(=O)n2nc(NCc3cc(N4CC5(COC5)C4)ncc3Cl)nc2[nH]1 [Example 97, 5-Butyl-2-[[5-chloro-2-(2-oxa-6-azaspiro[3.3]heptan-6-yl)-4-pyridyl]methylamino]-4H-[1,2,4]triazolo[1,5-a]pyrimidin-7-one]
24 | 2190 | – | CCCc1cc(=O)n2nc(NCc3cnc(N4CCOCC4)cc3Cl)nc2[nH]1 [Example 99, 2-[(4-Chloro-6-morpholino-3-pyridyl)methylamino]-5-propyl-4H-[1,2,4]triazolo[1,5-a]pyrimidin-7-one]
25 | – | 7790 | O=c1nc(CCc2ccccc2)[nH]c2nc(NCc3ccc(Cl)cc3Cl)nn12 [Example 101, 2-[(2,4-Dichlorophenyl)methylamino]-5-(2-phenylethyl)-4H-[1,2,4]triazolo[1,5-a][1,3,5]-triazin-7-one]
26 | 9510 | – | CCCc1cc(=O)n2nc(NCc3ccc(OC)cc3Cl)nc2[nH]1 [Example 69, 2-[(2-chloro-4-methoxyphen-yl)methylamino]-5-propyl-4H-[1,2,4]triazolo[1,5-a]pyrimidin-7-one]
27 | – | 1240 | CCCc1cc(=O)n2nc(NCc3cc(-c4ccn(C)n4)ccc3C)nc2[nH]1 [Example 83, 2-[[2-methyl-5-(1-methyl-pyrazol-3-yl)phenyl]methyl-amino]-5-propyl-4H-[1,2,4]-triazolo[1,5-a]pyrimidin-7-one]
28 | 2450 | – | CC(Nc1nc2[nH]c(C(F)(F)F)cc(=O)n2n1)c1ccc(-c2ccccc2)cc1 (stereo not drawn) [Example 78, 2-[1-(4-phenylphenyl)ethyl-amino]-5-(trifluoromethyl)-4H-[1,2,4]triazolo[1,5-a]pyrimidin-7-one]
29 | – | 2740 | CC(C)c1cc(=O)n2nc(NCc3ccc(Cl)cc3Cl)nc2[nH]1 [Example 61, 2-[(2,4-dichlorophenyl)methyl-amino]-5-isopropyl-4H-[1,2,4]-triazolo[1,5-a]pyrimidin-7-one]
30 | 1760 | – | O=c1cc(Cc2ccccc2)[nH]c2nc(NCc3ccc(Cl)cc3Cl)nn12 [Example 71, 5-benzyl-2-[(2,4-dichlorophen-yl)methylamino]-4H-[1,2,4]-triazolo[1,5-a]pyrimidin-7-one]
31 | 2550 | – | CCCc1cc(=O)n2nc(NCc3cc(N4CCCCC4)ncc3Cl)nc2[nH]1 [Example 94, 2-[[5-chloro-2-(1-piperidyl)-4-pyridyl]methylamino]-5-propyl-4H-[1,2,4]triazolo[1,5-a]pyrimidin-7-one]
32 | – | 2110 | O=c1cc(CCc2ccccc2)[nH]c2nc(NCc3ccc(Cl)cc3Cl)nn12 [Example 72, 2-[(2,4-dichlorophenyl)meth-ylamino]-5-(2-phenylethyl)-4H-[1,2,4]triazolo[1,5-a]-pyrimidin-7-one]
33 | – | 8410 | CC(Nc1nc2[nH]c(C(F)(F)F)cc(=O)n2n1)c1ccc(Cl)cc1Cl (stereo not drawn) [Example 77, 2-[1-(2,4-dichlorophenyl)ethyl-amino]-5-(trifluoromethyl)-4H-[1,2,4]triazolo[1,5-a]pyrimidin-7-one]
